Source: article PMC6499206, “Quantification of Volatile Metabolites Derived From Garlic (Allium sativum) in Human Urine” (Frontiers in Nutrition, 2019)

Test: Quantification of garlic-derived metabolites in human urine after ingestion of 3 g raw garlic (SIDA, SAFE, HRGC-MS / HRGC-GC-MS)
Type: in vivo
Details: for metabolite concentration in urine / metabolite concentration in urine, creatinine-normalized: 3 g raw garlic
Excerpt: Human urine samples were obtained from 18 volunteers (age 22–38 years, mean 27 years; 11 females, 7 males); thereby, one volunteer conducted the whole experimental series twice. At the time of examination, volunteers reported no known illness that might have potentially influenced the metabolism or the excretion of urine. The test persons were instructed to avoid foods that were rich in sulfur-containing substances at the testing day as well as 2 days preceding the testing day, namely garlic, onion, wild garlic, chives, cabbage, and leek, and were only allowed to consume the garlic sample provided in the course of the experiments. Additionally, subjects were asked to keep records of the food (including food supplements) and beverages they consumed during these 3 testing days. Generally, the overall panelists' requirements were in accordance with our previous studies ([5], [16]).
On the sampling day, the outer garlic cloves of a whole garlic bulb were peeled and cut into ~3 mm cubes by using a garlic cutter (Genius GmbH, Limburg/Lahn, Germany). Subsequently these cubes were thoroughly mixed and aliquoted into 3 g portions. Three to four test persons conducted the experiment at the same day. Each test person was asked to ingest a garlic portion of 3 g. In total, eight consecutive urine samples were provided by each test person, comprising one whole urine set. The samples were collected in sterile brown glass bottles, with sampling times as follows: one sample was provided directly prior to garlic consumption. The series of the second to eighth sample was then obtained at about 0.5, 1, 2, 4, 6, 8, and 24 h after garlic consumption, respectively. Between the first urine sample (prior to garlic consumption) and the seventh urine sample (8 h after garlic consumption) test persons only spent urine at the specific time points mentioned before. Another sample was provided at the next morning (24 h after garlic consumption). Between the samples provided 8 and 24 h after garlic consumption no urine was collected. All samples were immediately placed into a −80°C freezer and were kept frozen until further analysis.
The samples of each set were termed according to their sampling time. The following list provides the time intervals that are related to the respective sample name: • - pre: before garlic consumption • - 0.5 h post: 0.4–0.8 h after garlic consumption • - 1 h post: 0.9–1.3 h after garlic consumption • - 2 h post: 1.8 h−2.2 h after garlic consumption • - 4 h post: 3.8–4.4 h after garlic consumption • - 6 h post: 5.8–6.4 h after garlic consumption • - 8 h post: 7.8–8.4 h after garlic consumption • - 24 h post: 23.8–25.6 h after garlic consumption
A creatinine kit (Labor+Technik Eberhard Lehmann GmbH, Berlin, Germany) was used to determine the creatinine content in each urine sample. The determination principle of this kit is based on the reaction of creatinine with picric acid under basic conditions (Jaffé reaction). The formed complex was detected photometrically at a wavelength of 492 nm.
For quantification purposes, the deuterated standards ^2H3-AMS, ^2H3-AMSO, and ^2H3-AMSO2 were added to the sample and stirred for 10 min. Subsequently, DCM was added in a ratio of 1:2 (DCM/human urine; v/v) and this solution was stirred for further 30 min at room temperature. To isolate the volatile fraction from the urine samples we then applied SAFE-distillation ([17]), thereby distilling the respective samples at 50°C. After completion of the distillation process, 10 mL of DCM were applied in each case to rinse the SAFE apparatus and to ensure complete transition of the volatile compounds. This process was repeated with another 10 mL of DCM. After thawing, the obtained aqueous distillate phase was extracted three times with 25 mL DCM. The organic phases were combined, dried over anhydrous Na2SO4 and concentrated to a total volume of 100 μL by means of Vigreux distillation and subsequent micro-distillation at 50°C. […]

C=CC[S+](C)[O-] (stereo not drawn) [AMSO, allyl methyl sulfoxide]
concentration in urine compared with human milk (3 g raw garlic in both studies, milk data ref 20): about three times as high
metabolite concentration in urine (U I, 0.5 h post (0.55 h)): 168.4 µg/kg
metabolite concentration in urine, creatinine-normalized (U I, 0.5 h post (0.55 h)): 23.6 µg/mmol creatinine
metabolite concentration in urine (U I, 1 h post (1.03 h)): 191.0 µg/kg
metabolite concentration in urine, creatinine-normalized (U I, 1 h post (1.03 h)): 205.9 µg/mmol creatinine
metabolite concentration in urine (U I, 2 h post (2.05 h)): 227.6 µg/kg
metabolite concentration in urine, creatinine-normalized (U I, 2 h post (2.05 h)): 112.5 µg/mmol creatinine
metabolite concentration in urine (U I, 4 h post (4.05 h)): 165.7 µg/kg
metabolite concentration in urine, creatinine-normalized (U I, 4 h post (4.05 h)): 19.1 µg/mmol creatinine
metabolite concentration in urine (U I, 6 h post (6.05 h)): 119.1 µg/kg
metabolite concentration in urine, creatinine-normalized (U I, 6 h post (6.05 h)): 13.2 µg/mmol creatinine
metabolite concentration in urine (U I, 8 h post (8.05 h)): 41.8 µg/kg
metabolite concentration in urine, creatinine-normalized (U I, 8 h post (8.05 h)): 5.8 µg/mmol creatinine
metabolite concentration in urine (U I, 24 h post (25.55 h)): 1.6 µg/kg
metabolite concentration in urine, creatinine-normalized (U I, 24 h post (25.55 h)): 0.3 µg/mmol creatinine
metabolite concentration in urine (U I, pre (-0.03 h)): < LOD^2
metabolite concentration in urine, creatinine-normalized (U I, pre (-0.03 h)): < LOD^2
metabolite concentration in urine (U II, 0.5 h post (0.50 h)): 147.7 µg/kg
metabolite concentration in urine, creatinine-normalized (U II, 0.5 h post (0.50 h)): 14.0 µg/mmol creatinine
metabolite concentration in urine (U II, 1 h post (1.00 h)): 133.4 µg/kg
metabolite concentration in urine, creatinine-normalized (U II, 1 h post (1.00 h)): 51.2 µg/mmol creatinine
metabolite concentration in urine (U II, 2 h post (2.00 h)): 63.7 µg/kg
metabolite concentration in urine, creatinine-normalized (U II, 2 h post (2.00 h)): 62.6 µg/mmol creatinine
metabolite concentration in urine (U II, 4 h post (4.00 h)): 64.8 µg/kg
metabolite concentration in urine, creatinine-normalized (U II, 4 h post (4.00 h)): 12.0 µg/mmol creatinine
metabolite concentration in urine (U II, 6 h post (6.00 h)): 33.4 µg/kg
metabolite concentration in urine, creatinine-normalized (U II, 6 h post (6.00 h)): 3.7 µg/mmol creatinine
metabolite concentration in urine (U II, 8 h post (8.00 h)): 15.2 µg/kg
metabolite concentration in urine, creatinine-normalized (U II, 8 h post (8.00 h)): 1.8 µg/mmol creatinine
metabolite concentration in urine (U II, 24 h post (24.12 h)): traces^2
metabolite concentration in urine, creatinine-normalized (U II, 24 h post (24.12 h)): traces^2
metabolite concentration in urine (U II, pre (-0.13 h)): < LOD^2
metabolite concentration in urine, creatinine-normalized (U II, pre (-0.13 h)): < LOD^2
metabolite concentration in urine (U III, 0.5 h post (0.53 h)): 124.4 µg/kg
metabolite concentration in urine, creatinine-normalized (U III, 0.5 h post (0.53 h)): 74.5 µg/mmol creatinine
metabolite concentration in urine (U III, 1 h post (1.07 h)): 136.4 µg/kg
metabolite concentration in urine, creatinine-normalized (U III, 1 h post (1.07 h)): 192.7 µg/mmol creatinine
metabolite concentration in urine (U III, 2 h post (2.18 h)): 214.7 µg/kg
metabolite concentration in urine, creatinine-normalized (U III, 2 h post (2.18 h)): 133.1 µg/mmol creatinine
metabolite concentration in urine (U III, 4 h post (4.35 h)): 123.7 µg/kg
metabolite concentration in urine, creatinine-normalized (U III, 4 h post (4.35 h)): 47.0 µg/mmol creatinine
metabolite concentration in urine (U III, 6 h post (6.35 h)): 62.3 µg/kg
metabolite concentration in urine, creatinine-normalized (U III, 6 h post (6.35 h)): 12.2 µg/mmol creatinine
metabolite concentration in urine (U III, 8 h post (8.43 h)): 29.0 µg/kg
metabolite concentration in urine, creatinine-normalized (U III, 8 h post (8.43 h)): 5.2 µg/mmol creatinine
metabolite concentration in urine (U III, 24 h post (23.90 h)): 3.0 µg/kg
metabolite concentration in urine, creatinine-normalized (U III, 24 h post (23.90 h)): 0.5 µg/mmol creatinine
metabolite concentration in urine (U III, pre (-0.03 h)): 4.6 µg/kg
metabolite concentration in urine, creatinine-normalized (U III, pre (-0.03 h)): 0.8 µg/mmol creatinine
metabolite concentration in urine (U IV, 0.5 h post (0.55 h)): 144.3 µg/kg
metabolite concentration in urine, creatinine-normalized (U IV, 0.5 h post (0.55 h)): 30.7 µg/mmol creatinine
metabolite concentration in urine (U IV, 1 h post (1.05 h)): 141.0 µg/kg
metabolite concentration in urine, creatinine-normalized (U IV, 1 h post (1.05 h)): 117.5 µg/mmol creatinine
metabolite concentration in urine (U IV, 2 h post (2.12 h)): 129.7 µg/kg
metabolite concentration in urine, creatinine-normalized (U IV, 2 h post (2.12 h)): 82.3 µg/mmol creatinine
metabolite concentration in urine (U IV, 4 h post (4.05 h)): 108.9 µg/kg
metabolite concentration in urine, creatinine-normalized (U IV, 4 h post (4.05 h)): 22.6 µg/mmol creatinine
